Data: patent US8088623B2, “Dominant selection marker for the transformation of fungi” (priority 2003, dated 2012)
Converted amounts (≈) assume the structure as drawn.

What was measured:
[1] = test system: Pichia pastoris strain GS115; assay: Soraphen A sensitivity of recipient strain GS115 on MM plates; type: cell-based; details: point and surface inoculation, 30° C., six days
Method: Two methods were used to determine the concentration of Soraphen A inhibitory to the growth of P. pastoris GS115. On the one hand MM plates containing 0 to 0.1 μg/ml Soraphen A were locally inoculated with 10^6 to 10^2 cells. On the other hand 5000 cells were streaked onto such plates. Inokulations were incubated in duplicate at 30° C. for six days; 100 μl of 100% methanol was added daily to the lid of the inverted plates.

Ustilago zeae = details: cited from earlier work
[2] = test system: MF-ACC purified from Ustilago maydis; details: cited from earlier work
[3] = test system: Pichia pastoris transformant HWA3; assay: Soraphen A sensitivity of transformant HWA3 (accA, accC, accD) on MM plates; type: cell-based; details: 30° C., six days
Method: (§1) Transformation of spheroplasts was carried out with 10 μg of Sal I-linearized plasmid pAO815-ACC3 or pAO815-ACC4 following the manufacturer's instructions. Transformants were selected on RDB plates and in a second selection round the obtained histidine prototroph clones were tested for Soraphen A sensitivity on MM plates containing Soraphen A (0-0.1 μg/ml).

[4] = test system: filamentous fungi and yeasts; details: growth of numerous filamentous fungi and yeasts; cited from earlier work
[5] = test system: acetyl-CoA carboxylase (ACC) of yeast and filamentous fungi; details: cited from earlier work
MS-ACC from E. coli = target: T1, MS-ACC from E. coli (Escherichia coli, UniProt P24182); assay: Sensitivity of prokaryotic MS-ACC to inhibition
T1 construct: expressed in transfected cells; host or cells: Pichia pastoris GS115 transformed with pAO815-ACC4 (strain HWA4)

bacteria or prokaryotes = details: cited from earlier work
[6] = test system: Pichia pastoris transformant HWA3p; details: MM plates, 30° C., six days
Method: For transformation by electroporation, 3-12 μg of Sal I-linearized plasmid pPIC3.5K-BCCP was mixed with the competent cells and pulsed in 0.1 cm electroporation cuvettes at 1.5 kV, 25 μF, and 200Ω using a Gene Pulser (Bio-Rad). Immediately after the pulse, 1 ml of 1 M sorbitol was added to the cuvette and the cells were incubated for regeneration for 1 hour at room temperature. The cell suspension was aliquoted into two sterile Eppendorf tubes, 0.5 ml of YPD medium or MM medium was added, respectively, and the cells were incubated for 3 more hours at room temperature thereby being shaked. 50-200 μl of the aliquotes in YPD were spread on YPD-G418 plates to select G418 resistant transformants, whereas aliquots in MM medium were spread on MM-agar containing 0.02 μg/ml Soraphen A.
Histidine prototrophic or G418 resistant transformants were grown overnight in 20 ml MM medium. The cells were harvested by centrifugation and spotted onto MM plates containing different concentrations of Soraphen A (0-0.1 μg/ml). Duplicated plates were incubated at 30° C. for six days under daily addition of methanol.

[7] = test system: Pichia pastoris transformant HWA4; assay: Soraphen A sensitivity of transformant HWA4 (accA-D) on MM plates; type: cell-based; details: 30° C., six days
Method: as §1

Mucor hiemalis = details: cited from earlier work
[8] = test system: MF-ACC purified from rat liver; details: cited from earlier work

## CO[C@H]1CCCC[C@@H](c2ccccc2)OC(=O)[C@@H](C)[C@@]2(O)O[C@H]([C@@H](C)[C@H](O)[C@H]2OC)[C@@H](C)/C=C/[C@H]1OC [Soraphen A]
[1]
  Soraphen A concentration leading to complete inhibition of growth: ≤ 0.02 µg/mL
Ustilago zeae
  MIC value: 4 µg/mL (≈ 7.68 µM)
[2]
  inhibition of MF-ACC activity in vitro: inhibit
[3]
  Soraphen A concentration giving no growth: ≤ 0.02 µg/mL
[4]
  MIC values: below 1 ug/ml
[5]
  inhibition of acetyl-CoA carboxylase (ACC) activity: inhibits
MS-ACC from E. coli
  sensitivity of MS-ACC to inhibition by Soraphen A: insensitive
Bacteria or prokaryotes
  sensitivity to Soraphen: generally not sensitive
[6]
  Soraphen A concentration up to which resistance is fully developed: > 0.1 µg/mL
[7]
  Soraphen A concentration not inhibiting growth (undiminished growth): > 0.1 µg/mL
Mucor hiemalis
  MIC value: 0.03 µg/mL (≈ 0.0576 µM)
[8]
  inhibition of MF-ACC activity in vitro: inhibit
